{
  "source": "ChEMBL document CHEMBL4311992",
  "about": "“Discovery of 3-(((9H-purin-6-yl)amino)methyl)-4,6-dimethylpyridin-2(1H)-one derivatives as novel tubulin polymerization inhibitors for treatment of cancer” (Eur J Med Chem, 2019)",
  "key": {"[1]": {"biological_target": "Casein kinase I isoform gamma-1 (Homo sapiens) (UniProt Q9HCP0)", "experiment": "Inhibition of recombinant human CK1gamma1 (25 to 355 residues) assessed as residual activity at 10 uM using KRRRALS(p)VASLPGL as substrate measured after 40 mins in presence of [gamma33P]ATP by scintillation counting method"}, "[2]": {"biological_target": "Cyclin-dependent kinase 1/cyclin B1 (Homo sapiens) (UniProt P06493+P14635)", "sequence (P06493 whole entry, looked up)": "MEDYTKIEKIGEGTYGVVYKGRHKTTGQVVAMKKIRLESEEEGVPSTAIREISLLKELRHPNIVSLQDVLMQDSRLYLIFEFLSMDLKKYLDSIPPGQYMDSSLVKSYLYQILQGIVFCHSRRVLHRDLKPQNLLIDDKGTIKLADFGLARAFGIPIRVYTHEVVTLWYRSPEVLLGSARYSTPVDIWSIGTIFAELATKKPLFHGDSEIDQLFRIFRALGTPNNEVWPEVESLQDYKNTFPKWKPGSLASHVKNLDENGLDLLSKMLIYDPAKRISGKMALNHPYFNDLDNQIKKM", "sequence (P14635 whole entry, looked up)": "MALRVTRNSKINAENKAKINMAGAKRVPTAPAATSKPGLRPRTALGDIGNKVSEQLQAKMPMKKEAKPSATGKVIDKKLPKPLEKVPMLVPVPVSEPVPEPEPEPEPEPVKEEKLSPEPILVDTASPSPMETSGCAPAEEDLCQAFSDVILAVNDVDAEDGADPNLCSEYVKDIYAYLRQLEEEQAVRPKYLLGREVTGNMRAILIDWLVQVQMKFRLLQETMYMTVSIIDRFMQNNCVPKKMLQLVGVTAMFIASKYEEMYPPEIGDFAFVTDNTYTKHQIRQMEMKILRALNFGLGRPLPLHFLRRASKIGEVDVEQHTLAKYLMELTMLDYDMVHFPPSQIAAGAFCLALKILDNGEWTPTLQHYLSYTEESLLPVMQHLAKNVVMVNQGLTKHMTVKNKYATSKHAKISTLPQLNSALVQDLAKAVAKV", "experiment": "Inhibition of recombinant full-length human CDK1/cyclinB assessed as residual activity at 10 uM using histone H1 as substrate measured after 40 mins in presence of [gamma33P]ATP by scintillation counting method", "type": "protein-complex assay"}, "[3]": {"biological_target": "Aurora kinase C (Homo sapiens) (UniProt Q9UQB9)", "experiment": "Inhibition of recombinant human AURKC (35 to end residues) assessed as residual activity at 10 uM using AKRRRLSSLRA as substrate measured after 40 mins in presence of [gamma33P]ATP by scintillation counting method"}, "[4]": {"biological_target": "Receptor-type tyrosine-protein kinase FLT3 (Homo sapiens) (UniProt P36888)", "sequence (P36888 whole entry)": "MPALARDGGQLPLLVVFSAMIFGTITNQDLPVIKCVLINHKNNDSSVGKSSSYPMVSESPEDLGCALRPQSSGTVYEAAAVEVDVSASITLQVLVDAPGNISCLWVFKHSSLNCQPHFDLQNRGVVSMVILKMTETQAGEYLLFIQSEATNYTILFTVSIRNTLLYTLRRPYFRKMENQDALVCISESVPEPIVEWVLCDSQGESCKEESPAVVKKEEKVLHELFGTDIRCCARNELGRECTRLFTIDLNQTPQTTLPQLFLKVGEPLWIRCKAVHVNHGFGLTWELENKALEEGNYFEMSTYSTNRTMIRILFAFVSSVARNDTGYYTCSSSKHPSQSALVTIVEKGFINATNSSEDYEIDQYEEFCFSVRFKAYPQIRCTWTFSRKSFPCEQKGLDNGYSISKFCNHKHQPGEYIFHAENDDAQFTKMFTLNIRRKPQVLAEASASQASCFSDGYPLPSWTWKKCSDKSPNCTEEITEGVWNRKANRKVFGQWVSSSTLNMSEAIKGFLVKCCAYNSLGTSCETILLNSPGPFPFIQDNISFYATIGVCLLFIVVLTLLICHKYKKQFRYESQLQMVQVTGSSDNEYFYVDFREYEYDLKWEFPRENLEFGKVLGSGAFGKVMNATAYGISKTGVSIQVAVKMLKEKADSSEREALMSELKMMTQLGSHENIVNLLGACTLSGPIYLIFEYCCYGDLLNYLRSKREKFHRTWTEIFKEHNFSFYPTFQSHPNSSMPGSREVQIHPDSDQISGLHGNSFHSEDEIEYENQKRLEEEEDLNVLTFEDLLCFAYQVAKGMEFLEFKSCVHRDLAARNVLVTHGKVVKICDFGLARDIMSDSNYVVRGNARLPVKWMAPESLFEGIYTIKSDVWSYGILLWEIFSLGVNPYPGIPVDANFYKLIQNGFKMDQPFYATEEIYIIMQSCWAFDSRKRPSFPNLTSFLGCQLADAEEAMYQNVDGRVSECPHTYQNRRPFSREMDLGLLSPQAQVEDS", "experiment": "Inhibition of recombinant human Flt3 (564 to end residues) assessed as residual activity at 10 uM using EAIYAAPFAKKK as substrate measured after 40 mins in presence of [gamma33P]ATP by scintillation counting method"}, "[5]": {"biological_target": "Calcium/calmodulin-dependent protein kinase type IV (Homo sapiens) (UniProt Q16566)", "experiment": "Inhibition of recombinant full-length human CaMK4 assessed as residual activity at 10 uM using calmodulin as substrate measured after 40 mins in presence of [gamma33P]ATP by scintillation counting method"}, "[6]": {"system": "Tyrosine-protein kinase Blk (Homo sapiens), P51451 [UNDEFINED MUTATION]", "experiment": "Inhibition of full-length recombinant human BLK M287V mutant assessed as residual activity at 10 uM using poly(Glu, Tyr) 4:1 as substrate measured after 40 mins in presence of [gamma33P]ATP by scintillation counting method"}, "[7]": {"biological_target": "Cyclin-Y/Cyclin-dependent kinase 16 (Homo sapiens) (UniProt Q00536+Q8ND76)", "experiment": "Inhibition of recombinant full length human CDK16/cyclinY assessed as residual activity at 10 uM using PKSPKARKKL as substrate measured after 120 mins in presence of [gamma33P]ATP by scintillation counting method", "type": "protein-complex assay"}, "[8]": {"biological_target": "Tribbles homolog 2 (Homo sapiens) (UniProt Q92519)", "experiment": "Inhibition of recombinant full-length human TRB2 assessed as residual activity at 10 uM using RRRFRPASPLRGPPK as substrate measured after 120 mins in presence of [gamma33P]ATP by scintillation counting method"}, "[9]": {"biological_target": "NUAK family SNF1-like kinase 2 (Homo sapiens) (UniProt Q9H093)", "experiment": "Inhibition of recombinant full-length human NUAK2 assessed as residual activity at 10 uM using KKKVSRSGLYRSPSMPENLNRPR as substrate measured after 40 mins in presence of [gamma33P]ATP by scintillation counting method"}, "HepG2": {"system": "HepG2", "experiment": "cells", "details": "Homo sapiens, HepG2, 72 h"}, "HCT-116": {"system": "HCT-116", "experiment": "Antitumor activity against human HCT116 cells xenografted in nude BALB/c mouse assessed as reduction in tumor weight at 40 mg/kg, po administered once daily for 4 weeks measured every 3 days during compound dosing", "type": "functional, organism-based"}, "SW-620 [10]": {"system": "SW-620", "experiment": "Induction of apoptosis in human SW620 cells measured after 48 hrs by Annexin V-FITC/propidium iodide staining-based flow cytometric analysis", "type": "functional, cell-based"}, "SW-620 [11]": {"system": "SW-620", "experiment": "Induction of apoptosis in human SW620 cells assessed as early apoptotic cells at 25 nM measured after 48 hrs by Annexin V-FITC/propidium iodide staining-based flow cytometry (reference value: 0.773%)", "type": "functional"}, "[12]": {"biological_target": "Mitogen-activated protein kinase kinase kinase 11 (Homo sapiens) (UniProt Q16584)", "experiment": "Inhibition of human MLK3 assessed as residual activity at 10 uM by radiometric method"}, "[13]": {"system": "Protein kinase C eta type (Homo sapiens), P24723 [UNDEFINED MUTATION]", "sequence (P24723 whole entry, looked up, stated change not applied)": "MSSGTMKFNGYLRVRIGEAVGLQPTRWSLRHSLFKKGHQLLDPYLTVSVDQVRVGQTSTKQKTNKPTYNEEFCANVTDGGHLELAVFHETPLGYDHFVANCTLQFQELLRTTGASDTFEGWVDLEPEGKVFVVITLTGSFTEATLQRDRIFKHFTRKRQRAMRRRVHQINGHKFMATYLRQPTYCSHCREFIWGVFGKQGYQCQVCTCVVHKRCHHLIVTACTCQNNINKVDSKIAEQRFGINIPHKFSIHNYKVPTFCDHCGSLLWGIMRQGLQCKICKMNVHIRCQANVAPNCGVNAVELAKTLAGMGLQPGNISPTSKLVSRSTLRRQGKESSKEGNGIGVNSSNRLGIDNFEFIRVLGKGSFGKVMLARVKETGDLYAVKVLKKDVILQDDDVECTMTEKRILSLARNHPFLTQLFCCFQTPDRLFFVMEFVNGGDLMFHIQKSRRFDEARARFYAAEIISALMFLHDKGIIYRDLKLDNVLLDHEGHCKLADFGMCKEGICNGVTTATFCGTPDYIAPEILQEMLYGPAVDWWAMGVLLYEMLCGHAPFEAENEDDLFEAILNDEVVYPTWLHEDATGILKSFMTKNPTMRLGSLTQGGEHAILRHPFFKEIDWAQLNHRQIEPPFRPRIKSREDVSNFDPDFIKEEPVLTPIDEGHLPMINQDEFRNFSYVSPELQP", "experiment": "Inhibition of recombinant human PKCeta V108L/G109R/L392Q mutant (2 to end residues) assessed as residual activity at 10 uM using ERMRPRKRQGSVRRRV as substrate measured after 40 mins in presence of [gamma33P]ATP by scintillation counting method"}, "[14]": {"biological_target": "Cyclin-dependent kinase 14/Cyclin-Y (Homo sapiens) (UniProt O94921+Q8ND76)", "experiment": "Inhibition of human CDK14/cyclinY assessed as residual activity at 10 uM by radiometric method", "type": "protein-complex assay"}, "[15]": {"system": "Mitogen-activated protein kinase 14 (Homo sapiens), Q16539 [T106M]", "experiment": "Inhibition of recombinant full-length human SAPK2a T106M mutant assessed as residual activity at 10 uM using myelin basic protein as substrate measured after 40 mins in presence of [gamma33P]ATP by scintillation counting method"}, "[16]": {"system": "Angiopoietin-1 receptor (Homo sapiens), Q02763 [Q939H,Q940H,Y897S]", "experiment": "Inhibition of human Tie2 Q939H/Q940H/Y897S mutant (771 to end residues) using EFPIYDFLPAKKK as substrate measured after 40 mins in presence of [gamma33P]ATP by scintillation counting method", "set-up": "scale not given: the % may be the effect or the level left"}, "[17]": {"biological_target": "Histone-lysine N-methyltransferase EZH2 (Homo sapiens) (UniProt Q15910)", "sequence (Q15910 whole entry, looked up)": "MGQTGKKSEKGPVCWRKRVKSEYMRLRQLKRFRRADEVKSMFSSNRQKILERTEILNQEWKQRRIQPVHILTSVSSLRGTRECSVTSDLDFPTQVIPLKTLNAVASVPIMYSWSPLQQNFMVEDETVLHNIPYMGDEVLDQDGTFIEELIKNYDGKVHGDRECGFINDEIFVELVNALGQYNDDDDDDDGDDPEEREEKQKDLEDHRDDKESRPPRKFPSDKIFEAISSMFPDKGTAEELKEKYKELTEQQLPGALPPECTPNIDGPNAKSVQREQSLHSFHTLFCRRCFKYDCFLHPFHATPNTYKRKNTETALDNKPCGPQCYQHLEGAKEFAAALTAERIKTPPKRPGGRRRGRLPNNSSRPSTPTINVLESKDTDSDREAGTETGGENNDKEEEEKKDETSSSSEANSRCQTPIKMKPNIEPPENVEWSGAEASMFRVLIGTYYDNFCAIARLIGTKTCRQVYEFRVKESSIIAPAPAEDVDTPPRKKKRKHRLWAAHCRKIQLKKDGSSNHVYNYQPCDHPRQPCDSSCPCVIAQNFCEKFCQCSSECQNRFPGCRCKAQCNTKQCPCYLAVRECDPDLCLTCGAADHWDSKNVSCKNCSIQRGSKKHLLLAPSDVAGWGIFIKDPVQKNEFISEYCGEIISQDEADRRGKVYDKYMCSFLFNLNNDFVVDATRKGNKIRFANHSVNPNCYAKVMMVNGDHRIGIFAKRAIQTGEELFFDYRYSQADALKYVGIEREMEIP", "experiment": "Inhibition of EZH2 (unknown origin) at 1 uM relative to control"}, "[18]": {"experiment": "Toxicity in Balb/c mouse spleen at 80 mg/kg after 4 weeks by hematoxylin and eosin staining-based assay", "type": "organism-based", "details": "in vivo, 672 h"}, "[19]": {"biological_target": "Phosphatidylinositol 5-phosphate 4-kinase type-2 alpha (Homo sapiens) (UniProt P48426)", "experiment": "Inhibition of recombinant full-length human PIP4K2alpha assessed as residual activity at 10 uM using phosphatidylinositol 5-phosphate as substrate measured after 40 mins by HTRF assay"}, "Homo sapiens": {"species_on_record": "Homo sapiens", "experiment": "Inhibition of recombinant full-length human JNK2alpha2 S51N mutant assessed as residual activity at 10 uM using ATF2 as substrate measured after 40 mins in presence of [gamma33P]ATP by scintillation counting method"}, "[20]": {"biological_target": "Tyrosine-protein kinase Yes (Homo sapiens) (UniProt P07947)", "sequence (P07947 2-543 limits assumed)": "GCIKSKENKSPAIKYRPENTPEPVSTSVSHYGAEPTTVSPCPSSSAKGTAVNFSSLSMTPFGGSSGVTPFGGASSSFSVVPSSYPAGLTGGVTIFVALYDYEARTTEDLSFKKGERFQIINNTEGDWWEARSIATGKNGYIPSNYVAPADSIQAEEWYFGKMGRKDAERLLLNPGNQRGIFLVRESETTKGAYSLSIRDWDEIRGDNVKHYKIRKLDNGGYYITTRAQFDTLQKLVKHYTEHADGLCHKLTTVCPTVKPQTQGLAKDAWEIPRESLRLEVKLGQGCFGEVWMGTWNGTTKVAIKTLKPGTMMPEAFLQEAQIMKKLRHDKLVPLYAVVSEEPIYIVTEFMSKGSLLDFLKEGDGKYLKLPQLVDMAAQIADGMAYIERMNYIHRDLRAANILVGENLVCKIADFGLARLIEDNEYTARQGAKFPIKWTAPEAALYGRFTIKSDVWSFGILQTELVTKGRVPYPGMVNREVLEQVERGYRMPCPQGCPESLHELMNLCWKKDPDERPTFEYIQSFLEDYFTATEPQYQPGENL", "experiment": "Inhibition of recombinant full-length human Yes assessed as residual activity at 10 uM using poly(Glu, Tyr) 4:1 as substrate measured after 40 mins in presence of [gamma33P]ATP by scintillation counting method"}, "[21]": {"biological_target": "Serine/threonine-protein kinase TBK1 (Homo sapiens) (UniProt Q9UHD2)", "sequence (Q9UHD2 whole entry)": "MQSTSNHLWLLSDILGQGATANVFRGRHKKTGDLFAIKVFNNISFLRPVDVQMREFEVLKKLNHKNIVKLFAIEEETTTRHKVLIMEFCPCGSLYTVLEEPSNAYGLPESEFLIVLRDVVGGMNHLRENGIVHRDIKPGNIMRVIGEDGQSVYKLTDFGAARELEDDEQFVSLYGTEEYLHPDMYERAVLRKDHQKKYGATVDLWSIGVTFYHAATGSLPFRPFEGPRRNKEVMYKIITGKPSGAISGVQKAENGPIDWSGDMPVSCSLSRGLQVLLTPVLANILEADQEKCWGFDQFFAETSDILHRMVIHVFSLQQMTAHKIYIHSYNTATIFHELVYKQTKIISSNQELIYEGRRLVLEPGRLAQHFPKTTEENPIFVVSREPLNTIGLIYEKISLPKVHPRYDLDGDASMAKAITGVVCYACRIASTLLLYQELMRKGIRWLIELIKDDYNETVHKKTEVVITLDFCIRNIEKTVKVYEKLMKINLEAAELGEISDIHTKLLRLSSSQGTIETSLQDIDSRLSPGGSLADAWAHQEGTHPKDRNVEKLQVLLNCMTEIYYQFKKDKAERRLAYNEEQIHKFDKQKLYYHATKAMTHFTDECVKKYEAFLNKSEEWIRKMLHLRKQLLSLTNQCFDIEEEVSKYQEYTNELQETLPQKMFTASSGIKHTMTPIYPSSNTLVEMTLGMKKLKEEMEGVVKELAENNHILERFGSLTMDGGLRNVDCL", "experiment": "Inhibition of recombinant full-length human TBK1 assessed as residual activity at 10 uM using KRRRALS(p)VASLPGL as substrate measured after 40 mins in presence of [gamma33P]ATP by scintillation counting method"}, "[22]": {"biological_target": "SRSF protein kinase 3 (Homo sapiens) (UniProt Q9UPE1)", "sequence (Q9UPE1 whole entry)": "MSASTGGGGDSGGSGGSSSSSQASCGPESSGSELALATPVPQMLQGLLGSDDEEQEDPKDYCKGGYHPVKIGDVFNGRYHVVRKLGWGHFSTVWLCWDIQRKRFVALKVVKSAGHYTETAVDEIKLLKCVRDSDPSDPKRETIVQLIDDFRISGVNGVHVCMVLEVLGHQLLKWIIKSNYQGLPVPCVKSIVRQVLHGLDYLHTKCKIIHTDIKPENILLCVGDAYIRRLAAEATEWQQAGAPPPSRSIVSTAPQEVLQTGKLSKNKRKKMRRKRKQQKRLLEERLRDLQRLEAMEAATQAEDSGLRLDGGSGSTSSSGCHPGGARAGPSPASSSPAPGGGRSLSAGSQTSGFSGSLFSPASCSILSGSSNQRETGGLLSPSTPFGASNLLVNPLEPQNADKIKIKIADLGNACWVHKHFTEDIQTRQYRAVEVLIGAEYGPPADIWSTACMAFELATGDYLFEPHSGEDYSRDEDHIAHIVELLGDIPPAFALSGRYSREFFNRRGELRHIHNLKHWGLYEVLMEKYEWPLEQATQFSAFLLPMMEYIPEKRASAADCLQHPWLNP", "experiment": "Inhibition of recombinant full-length human MSSK1 assessed as residual activity at 10 uM using ERMRPRKRQGSVRRRV as substrate measured after 40 mins in presence of [gamma33P]ATP by scintillation counting method"}},
  "note": "The source made the active and inactive calls. No cut-off for these calls is given here.",
  "data": [
    {"smiles": "Cc1cc(C)c(CNc2nc(Cl)nc3c2ncn3C2CCCC2)c(=O)[nH]1", "values": [
      {"measurement": "Activity", "setting": "[1]", "value": 94.5, "unit": "%"},
      {"measurement": "Activity", "setting": "[2]", "value": 102, "unit": "%"},
      {"measurement": "Activity", "setting": "[3]", "value": 106, "unit": "%"},
      {"measurement": "Activity", "setting": "[4]", "value": 130, "unit": "%"},
      {"measurement": "Activity", "setting": "[5]", "value": 121, "unit": "%"},
      {"measurement": "Activity", "setting": "[6]", "value": 115, "unit": "%"},
      {"measurement": "Activity", "setting": "[7]", "value": 123, "unit": "%"},
      {"measurement": "Activity", "setting": "[8]", "value": 90.5, "unit": "%"},
      {"measurement": "Activity", "setting": "[9]", "value": 114, "unit": "%"},
      {"measurement": "IC50", "setting": "HepG2", "value": 80, "unit": "nM"},
      {"measurement": "Activity", "setting": "HCT-116", "value": "Active"},
      {"measurement": "Activity", "setting": "SW-620 [10]", "value": "Dose-dependent effect"},
      {"measurement": "Activity", "setting": "SW-620 [11]", "value": 1.22, "unit": "%"},
      {"measurement": "Activity", "setting": "[12]", "value": 104, "unit": "%"},
      {"measurement": "Activity", "setting": "[13]", "value": 98.5, "unit": "%"},
      {"measurement": "Activity", "setting": "[14]", "value": 96.5, "unit": "%"},
      {"measurement": "Activity", "setting": "[15]", "value": 100, "unit": "%"},
      {"measurement": "Activity", "setting": "[16]", "value": 114, "unit": "%"},
      {"measurement": "inhibition", "setting": "[17]", "value": -10, "unit": "%"},
      {"measurement": "Activity", "setting": "[18]", "value": "Non-Toxic"},
      {"measurement": "Activity", "setting": "[19]", "value": 108, "unit": "%"},
      {"measurement": "Activity", "setting": "Homo sapiens", "value": 103, "unit": "%"},
      {"measurement": "Activity", "setting": "[20]", "value": 79, "unit": "%"},
      {"measurement": "Activity", "setting": "[21]", "value": 99.5, "unit": "%"},
      {"measurement": "Activity", "setting": "[22]", "value": 130, "unit": "%"}
    ]}
  ]
}
